Laboratory results published in patent US20220046923A1, “HERBICIDAL CINNOLINIUM COMPOUNDS” (SYNGENTA CROP PROTECTION AG, priority 2018, published 2022).

Columns and labels:
Assay in all cases: Post-emergence efficacy, glasshouse spray test
Assay type in all cases: in vivo
Setaria faberi (SETFA) = details: Setaria faberi, post-emergence, 312 h, evaluated after 13 days, read-out: Control of weed species SETFA after post-emergence application (100=total damage to plant; 0=no damage to plant); for pest or weed control at 1000 g/ha: application rate 1000 g/Ha; for pest or weed control at 500 g/ha: application rate 500 g/Ha
Method in brief: (§1)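 Seeds were sown in pots of standard soil and grown for 14 days under controlled glasshouse conditions. Seedlings were sprayed with the compound emulsified via acetone and IF50 and diluted in sodium lauryl ether sulphate (0.25% or 1%) with 1% ammonium sulphate. They were kept at 24/16 °C with 14 h light and 65% humidity and rated for damage on a 0–100 scale after 13 days.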

[1] = test system: Digitaria sanguinalis (DIGSA); details: Digitaria sanguinalis, post-emergence, 312 h, evaluated after 13 days, read-out: Control of weed species DIGSA after post-emergence application (100=total damage to plant; 0=no damage to plant); for pest or weed control at 1000 g/ha: application rate 1000 g/Ha; for pest or weed control at 500 g/ha: application rate 500 g/Ha
Method in brief: as §1

[2] = test system: Echinochloa crus-galli (ECHCG); details: Echinochloa crus-galli, post-emergence, 312 h, evaluated after 13 days, read-out: Control of weed species ECHCG after post-emergence application (100=total damage to plant; 0=no damage to plant); for pest or weed control at 1000 g/ha: application rate 1000 g/Ha; for pest or weed control at 500 g/ha: application rate 500 g/Ha
Method in brief: as §1

[3] = test system: Amaranthus palmeri (AMAPA); details: Amaranthus palmeri, post-emergence, 312 h, evaluated after 13 days, read-out: Control of weed species AMAPA after post-emergence application (100=total damage to plant; 0=no damage to plant); for pest or weed control at 1000 g/ha: application rate 1000 g/Ha; for pest or weed control at 500 g/ha: application rate 500 g/Ha
Method in brief: as §1

[4] = test system: Chenopodium album (CHEAL); details: Chenopodium album, post-emergence, 312 h, evaluated after 13 days, read-out: Control of weed species CHEAL after post-emergence application (100=total damage to plant; 0=no damage to plant); for pest or weed control at 1000 g/ha: application rate 1000 g/Ha; for pest or weed control at 500 g/ha: application rate 500 g/Ha
Method in brief: as §1

Eleusine indica (ELEIN) = details: Eleusine indica, post-emergence, 312 h, evaluated after 13 days, read-out: Control of weed species ELEIN after post-emergence application (100=total damage to plant; 0=no damage to plant); for pest or weed control at 1000 g/ha: application rate 1000 g/Ha; for pest or weed control at 500 g/ha: application rate 500 g/Ha
Method in brief: as §1

[5] = test system: Euphorbia heterophylla (EPHHL); details: Euphorbia heterophylla, post-emergence, 312 h, evaluated after 13 days, read-out: Control of weed species EPHHL after post-emergence application (100=total damage to plant; 0=no damage to plant); for pest or weed control at 1000 g/ha: application rate 1000 g/Ha; for pest or weed control at 500 g/ha: application rate 500 g/Ha
Method in brief: as §1

[6] = test system: Ipomoea hederacea (IPOHE); details: Ipomoea hederacea, post-emergence, 312 h, evaluated after 13 days, read-out: Control of weed species IPOHE after post-emergence application (100=total damage to plant; 0=no damage to plant); for pest or weed control at 1000 g/ha: application rate 1000 g/Ha; for pest or weed control at 500 g/ha: application rate 500 g/Ha
Method in brief: as §1

Lolium perenne (LOLPE) = details: Lolium perenne, post-emergence, 312 h, evaluated after 13 days, read-out: Control of weed species LOLPE after post-emergence application (100=total damage to plant; 0=no damage to plant); for pest or weed control at 1000 g/ha: application rate 1000 g/Ha; for pest or weed control at 500 g/ha: application rate 500 g/Ha
Method in brief: as §1

| Compound | pest or weed control at 1000 g/ha (Setaria faberi (SETFA)) [%] | pest or weed control at 1000 g/ha [1] [%] | pest or weed control at 1000 g/ha [2] [%] | pest or weed control at 1000 g/ha [3] [%] | pest or weed control at 1000 g/ha [4] [%] | pest or weed control at 1000 g/ha (Eleusine indica (ELEIN)) [%] | pest or weed control at 1000 g/ha [5] [%] | pest or weed control at 1000 g/ha [6] [%] | pest or weed control at 1000 g/ha (Lolium perenne (LOLPE)) [%] | pest or weed control at 500 g/ha (Setaria faberi (SETFA)) [%] | pest or weed control at 500 g/ha [1] [%] | pest or weed control at 500 g/ha [2] [%] | pest or weed control at 500 g/ha [3] [%] | pest or weed control at 500 g/ha [4] [%] | pest or weed control at 500 g/ha (Eleusine indica (ELEIN)) [%] | pest or weed control at 500 g/ha [5] [%] | pest or weed control at 500 g/ha [6] [%] | pest or weed control at 500 g/ha (Lolium perenne (LOLPE)) [%] |
| --- | --- | --- | --- | --- | --- | --- | --- | --- | --- | --- | --- | --- | --- | --- | --- | --- | --- | --- |
| N[C@@H](C[n+]1ccc2ccccc2n1)C(=O)[O-] [Compound A23, (2S)-2-amino-3-cinnolin-2-ium-2-yl-propanoic Acid 2,2,2-trifluoroacetate] | 40 | 40 | 30 | 60 | 30 | 20 | 30 | 20 | 10 |  |  |  |  |  |  |  |  |  |
| COC(=O)C[n+]1cc(C)c2cccc(C)c2n1 [Compound A7] | 10 | 0 | 10 | 30 | 30 | 20 | 20 | 10 | 20 |  |  |  |  |  |  |  |  |  |
| COC(=O)C[n+]1ccc2cc(C)ccc2n1 [Compound A57] | 30 | 40 | 20 | 70 | 40 | 60 | 60 | 20 | 10 |  |  |  |  |  |  |  |  |  |
| COC(=O)CC[n+]1cc(C)c2ccccc2n1 [Compound A63] | 10 | 20 | 10 | 40 | 50 | 40 | 20 | 10 | 30 |  |  |  |  |  |  |  |  |  |
| O=S(=O)([O-])CCCC[n+]1ccc2ccccc2n1 [Compound A25] | 30 | 20 | 0 | 50 | 60 | 60 | 30 | 50 | 50 |  |  |  |  |  |  |  |  |  |
| Cc1cc2ccccc2n[n+]1CCS(=O)(=O)[O-] [Compound A77, 2-(3-methylcinnolin-2-ium-2-yl)ethanesulfonate] | 30 | 90 | 30 | 100 | 100 | 90 | 90 | 80 | 40 |  |  |  |  |  |  |  |  |  |
| O=S(=O)([O-])CC[n+]1ccc2ccc(C(F)(F)F)cc2n1 [Compound A80] | 30 | 20 | 20 | 0 | 20 | 30 | 20 | 0 | 10 |  |  |  |  |  |  |  |  |  |
| COC(=O)C(C)[n+]1ccc2ccccc2n1 (stereo not drawn) [Compound A120] |  |  |  |  |  |  |  |  |  | 50 | 50 | 30 | 100 | 90 | 60 | 60 | 20 | 0 |
| Cc1c[n+](CC(=O)O)nc2ccccc12 [Compound A66] | 0 | 0 | 0 | 20 | 60 | 20 | 20 | 30 | 0 |  |  |  |  |  |  |  |  |  |
| COc1cccc2cc[n+](CCS(=O)(=O)[O-])nc12 [Compound A86] | 50 | 40 | 50 | 100 | 100 | 80 | 90 | 90 | 60 |  |  |  |  |  |  |  |  |  |
| O=S(=O)([O-])NCC[n+]1ccc2ccccc2n1 [Compound A41] | 90 | 80 | 30 | 100 | 100 | 100 | 100 | 80 | 70 |  |  |  |  |  |  |  |  |  |
| O=P([O-])(O)CC[n+]1ccc2ccccc2n1 [Compound A71] | 70 | 80 | 40 | 70 | 100 | 70 | 90 | 40 | 30 |  |  |  |  |  |  |  |  |  |
| O=S(=O)([O-])OCC[n+]1nc2ccccc2cc1Cl [Compound A111] | 0 | 10 | 0 | 0 | 0 | 20 | 30 | 0 | 0 |  |  |  |  |  |  |  |  |  |
| O=S(=O)(O)OCC[n+]1nc2ccccc2cc1Cl [Compound A56] | 20 | 20 | 10 | 0 | 0 | 30 | 50 | 0 | 0 |  |  |  |  |  |  |  |  |  |
| O=S(=O)([O-])CCC[n+]1cc(C(Cl)(Cl)Cl)c2ccccc2n1 [Compound A40] |  |  |  |  |  |  |  |  |  | 0 | 10 | 30 | 50 | 50 | 20 | 40 | 50 | 0 |
| Cc1ccc2n[n+](CC(=O)[O-])ccc2c1 [Compound A69] | 30 | 30 | 40 | 30 | 0 | 30 | 40 | 0 | 0 |  |  |  |  |  |  |  |  |  |
